US20230077362A1 (CORTEVA AGRISCIENCE LLC, priority 2019, published 2023)
Read-outs that look alike come from different tables or passages of the source.

Legend:
[1] = test system: Beet Armyworm (Spodoptera exigua) ("BAW"), second instar larvae; assay: Bioassay on beet armyworm (BAW), 128-well diet tray assay; format: in vivo; conditions: for pest or weed control at 50 µg/cm2: Spodoptera exigua; for BAW rating: Table ABC, species BAW, C = not tested, D = no activity noticed; for BAW (Biological Results, rating): Beet Armyworm (Spodoptera exigua), C = Not Tested
Outline: (§1)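 Sealed trays, 25° C., 14:10 light:dark, 5–7 d. Per-well % mortality recorded, mean of eight wells reported.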

[2] = test system: Cabbage Looper (Trichoplusia ni) ("CL"), second instar larvae; assay: Bioassay on cabbage looper (CL), 128-well diet tray assay; format: in vivo; conditions: for pest or weed control at 50 µg/cm2: Trichoplusia ni; for CL rating: Table ABC, species CL, C = not tested, D = no activity noticed; for CL (Biological Results, rating): Cabbage Looper (Trichoplusia ni), C = Not Tested
Outline: as §1

[3] = read-out: BAW (Biological Results, rating)
[4] = read-out: CL (Biological Results, rating)

Row | SMILES | pest or weed control at 50 µg/cm2 [1, 3] | pest or weed control at 50 µg/cm2 [2, 4] | further results
1 | CCCc1ccc(N(C)C)cc1N1C(=O)CS/C1=N\C(=O)Nc1ccc(-c2ncn(-c3ccc(OC(F)(F)F)cn3)n2)cc1C(F)(F)F [Compound J278, (Z)-1-(3-(5-(Dimethylamino)-2-propylphenyl)-4-oxothiazolidin-2-ylidene)-3-(4-(1-(5-(trifluoromethoxy)pyridin-2-yl)-1H-1,2,4-triazol-3-yl)-2-(trifluoromethyl)phenyl)urea] | 50 to 100% | 50 to 100% | 
2 | COC(C)c1ccc(C)cc1N1C(=O)CS/C1=N\C(=O)Nc1ccc(-c2ncn(-c3ccc(OC(F)(F)F)cn3)n2)cc1C#N (stereo not drawn) [Compound J267, (Z)-1-(2-Cyano-4-(1-(5-(trifluoromethoxy)pyridin-2-yl)-1H-1,2,4-triazol-3-yl)phenyl)-3-(3-(2-(1-methoxyethyl)-5-methylphenyl)-4-oxothiazolidin-2-ylidene)urea] | 50 to 100% | 50 to 100% | 
3 | COc1ccc(C(C)C)c(N2C(=O)CS/C2=N\C(=O)Nc2ccc(-c3ncn(-c4ccc(OC(F)(F)F)cn4)n3)cc2F)c1 [Compound J239, (Z)-1-(2-Fluoro-4-(1-(5-(trifluoromethoxy)pyridin-2-yl)-1H-1,2,4-triazol-3-yl)phenyl)-3-(3-(2-isopropyl-5-methoxyphenyl)-4-oxothiazolidin-2-ylidene)urea] | 50 to 100% | 50 to 100% | 
4 | Cc1cc(-c2ncn(-c3ccc(C(F)(F)F)cc3)n2)ccc1NC(=O)/N=C1\SCC(=O)N1c1cccc(C)c1COCC(F)(F)F [Compound J579] |  |  | BAW rating [1]: A (50-100); CL rating [2]: A (50-100)
5 | CC(C)c1ccc(N(C)C)cc1N1C(=O)CS/C1=N\C(=O)Nc1ccc(-c2ncn(-c3ccc(C(F)(F)F)cn3)n2)cc1Cl [Compound J296, (Z)-1-(2-Chloro-4-(1-(5-(trifluoromethyl)pyridin-2-yl)-1H-1,2,4-triazol-3-yl)phenyl)-3-(3-(5-(dimethylamino)-2-isopropylphenyl)-4-oxothiazolidin-2-ylidene)urea] | 50 to 100% | 50 to 100% | 
6 | CC(C)c1ccc(C#N)cc1N1C(=O)CS/C1=N\C(=O)Nc1ccc(-n2cnc(-c3ccc(OC(F)(F)F)cc3)n2)cc1 [Compound J407, (Z)-1-(3-(5-Cyano-2-isopropylphenyl)-4-oxothiazolidin-2-ylidene)-3-(4-(3-(4-(trifluoromethoxy)phenyl)-1H-1,2,4-triazol-1-yl)phenyl)urea] |  |  | pest or weed control at 50 µg/cm2 ([1]; read-out: BAW rating): 50 to 100%; pest or weed control at 50 µg/cm2 ([2]; read-out: CL rating): 50 to 100%
7 | COC(C)c1ccc(C)cc1N1C(=O)CS/C1=N\C(=O)Nc1ccc(-c2ncn(-c3ccc(C(F)F)cn3)n2)cc1F (stereo not drawn) [Compound J341] |  |  | BAW (Biological Results, rating) [1]: A (50-100); CL (Biological Results, rating) [2]: A (50-100)
8 | CN(C)c1ccc(OCC(F)(F)F)c(N2C(=O)CS/C2=N\C(=O)Nc2ccc(-c3ncn(-c4ccc(S(=O)(=O)C(F)(F)F)cc4)n3)cc2F)c1 [Compound J672, (Z)-1-(3-(5-(Dimethylamino)-2-(2,2,2-trifluoroethoxy)phenyl)-4-oxothiazolidin-2-ylidene)-3-(2-fluoro-4-(1-(4-((trifluoromethyl)sulfonyl)phenyl)-1H-1,2,4-triazol-3-yl)phenyl)urea] |  |  | pest or weed control at 50 µg/cm2 ([1]; read-out: BAW rating): 50 to 100%; pest or weed control at 50 µg/cm2 ([2]; read-out: CL rating): 50 to 100%
9 | CCC(C)c1ccc(C)cc1N1C(=O)CS/C1=N\C(=O)Nc1ccc(-c2ncn(-c3ccc(C(F)(F)F)cc3)n2)cc1F (stereo not drawn) [Compound J65, (Z)-1-(3-(2-(sec-Butyl)-5-methylphenyl)-4-oxothiazolidin-2-ylidene)-3-(2-fluoro-4-(1-(4-(trifluoromethyl)phenyl)-1H-1,2,4-triazol-3-yl)phenyl)urea] | 50 to 100% | 50 to 100% | 
10 | COC(C)c1ccc(C)cc1N1C(=O)CS/C1=N\C(=O)Nc1ccc(-c2ncn(-c3ccc(OC(F)(F)F)cn3)n2)cc1C (stereo not drawn) [Compound J240, (Z)-1-(3-(2-(1-Methoxyethyl)-5-methylphenyl)-4-oxothiazolidin-2-ylidene)-3-(2-methyl-4-(1-(5-(trifluoromethoxy)pyridin-2-yl)-1H-1,2,4-triazol-3-yl)phenyl)urea] | 50 to 100% | 50 to 100% | 
11 | Cc1ccc(C(C)C)c(N2C(=O)CS/C2=N\C(=O)Nc2ccc(-n3cnc(-c4ccc(C(F)(F)F)cc4)n3)cc2F)c1 [Compound J694, (Z)-1-(2-Fluoro-4-(3-(4-(trifluoromethyl)phenyl)-1H-1,2,4-triazol-1-yl)phenyl)-3-(3-(2-isopropyl-5-methylphenyl)-4-oxothiazolidin-2-ylidene)urea] |  |  | pest or weed control at 50 µg/cm2 ([1]; read-out: BAW rating): 50 to 100%; pest or weed control at 50 µg/cm2 ([2]; read-out: CL rating): 50 to 100%
12 | Cc1ccc(COCC(F)(F)F)c(N2C(=O)CS/C2=N\C(=O)Nc2ccc(-c3ncn(-c4ccccc4)n3)cc2F)c1 [Compound J769, (Z)-1-(2-Fluoro-4-(1-phenyl-1H-1,2,4-triazol-3-yl)phenyl)-3-(3-(5-methyl-2-((2,2,2-trifluoroethoxy)methyl)phenyl)-4-oxothiazolidin-2-ylidene)urea] |  |  | pest or weed control at 50 µg/cm2 ([1]; read-out: BAW rating): 50 to 100%; pest or weed control at 50 µg/cm2 ([2]; read-out: CL rating): 50 to 100%
13 | COc1cc(-c2ncn(-c3ccc(OC(F)(F)F)cc3)n2)ccc1NC(=O)/N=C1\SCC(=O)N1c1cc(C)ccc1OCCC(F)(F)F [Compound J91, (Z)-1-(2-Methoxy-4-(1-(4-(trifluoromethoxy)phenyl)-1H-1,2,4-triazol-3-yl)phenyl)-3-(3-(5-methyl-2-(3,3,3-trifluoropropoxy)phenyl)-4-oxothiazolidin-2-ylidene)urea] | 50 to 100% | 50 to 100% | 
14 | Cc1ccc(COCC(F)(F)F)c(N2C(=O)CS/C2=N\C(=O)Nc2ccc(-c3ccn(-c4ccc(C(F)(F)F)nn4)n3)cc2F)c1 [Compound J390] |  |  | BAW rating [1]: A (50-100); CL rating [2]: A (50-100)
15 | CCN(CC)c1ccc(C(C)C)c(N2C(=O)CS/C2=N\C(=O)Nc2ccc(-c3ncn(-c4ccc(OC(F)(F)F)cc4)n3)cc2C)c1 [Compound J129, (Z)-1-(3-(5-(Diethylamino)-2-isopropylphenyl)-4-oxothiazolidin-2-ylidene)-3-(2-methyl-4-(1-(4-(trifluoromethoxy)phenyl)-1H-1,2,4-triazol-3-yl)phenyl)urea] | 50 to 100% | 50 to 100% | 
16 | COC(c1ccc(C)cc1N1C(=O)CS/C1=N\C(=O)Nc1ccc(-c2ncn(-c3ccc(C(F)(F)F)cn3)n2)cc1F)C(F)(F)F (stereo not drawn) [Compound J377] |  |  | BAW rating [1]: A (50-100); CL rating [2]: A (50-100)
17 | Cc1ccc(OCCC(F)(F)F)c(N2C(=O)CS/C2=N\C(=O)Nc2ccc(-n3cnc(-c4ccc(OC(F)(F)F)cc4)n3)cc2)c1 [Compound J404, (Z)-1-(3-(5-Methyl-2-(3,3,3-trifluoropropoxy)phenyl)-4-oxothiazolidin-2-ylidene)-3-(4-(3-(4-(trifluoromethoxy)phenyl)-1H-1,2,4-triazol-1-yl)phenyl)urea] |  |  | pest or weed control at 50 µg/cm2 ([1]; read-out: BAW rating): 50 to 100%; pest or weed control at 50 µg/cm2 ([2]; read-out: CL rating): 50 to 100%
18 | CC(C)c1cc(F)c(N(C)C)cc1N1C(=O)CS/C1=N\C(=O)Nc1ccc(-c2ncn(-c3ccc(C(F)F)cn3)n2)cc1F [Compound J351] |  |  | BAW (Biological Results, rating) [1]: A (50-100); CL (Biological Results, rating) [2]: A (50-100)
19 | COc1ccc(COCC(F)(F)F)c(N2C(=O)CS/C2=N\C(=O)Nc2ccc(-n3cnc(-c4ccc(OC(F)(F)F)cc4)n3)cc2F)c1 [Compound J691, (Z)-1-(2-Fluoro-4-(3-(4-(trifluoromethoxy)phenyl)-1H-1,2,4-triazol-1-yl)phenyl)-3-(3-(5-methoxy-2-((2,2,2-trifluoroethoxy)methyl)phenyl)-4-oxothiazolidin-2-ylidene)urea] |  |  | pest or weed control at 50 µg/cm2 ([1]; read-out: BAW rating): 50 to 100%; pest or weed control at 50 µg/cm2 ([2]; read-out: CL rating): 50 to 100%
20 | CCCOc1ccc(C)cc1N1C(=O)CS/C1=N\C(=O)Nc1ccc(-c2ncn(-c3ccc(OC(F)(F)F)cc3)n2)cc1F [Compound J125, (Z)-1-(2-Fluoro-4-(1-(4-(trifluoromethoxy)phenyl)-1H-1,2,4-triazol-3-yl)phenyl)-3-(3-(5-methyl-2-propoxyphenyl)-4-oxothiazolidin-2-ylidene)urea] | 50 to 100% | 50 to 100% | 
21 | O=C(/N=C1\SCC(=O)N1c1cc(Cl)ccc1C(F)(F)F)NCC(F)c1ccc(-c2ncn(-c3ccc(OC(F)(F)F)cc3)n2)cc1 (stereo not drawn) [Compound H6] | 50 to 100% | 50 to 100% | 
22 | CCCc1ccc(C)cc1N1C(=O)CS/C1=N\C(=O)Nc1ccc(-c2ncn(-c3ccc(C(F)(F)F)cn3)n2)cc1C [Compound J293, (Z)-1-(3-(5-Methyl-2-propylphenyl)-4-oxothiazolidin-2-ylidene)-3-(2-methyl-4-(1-(5-(trifluoromethyl)pyridin-2-yl)-1H-1,2,4-triazol-3-yl)phenyl)urea] | 50 to 100% | 50 to 100% | 
23 | COc1ccc(C(C)C)c(N2C(=O)CS/C2=N\C(=O)Nc2ccc(-c3ncn(-c4ccc(OC(F)(F)F)cn4)n3)cc2C)c1 [Compound J252, (Z)-1-(3-(2-Isopropyl-5-methoxyphenyl)-4-oxothiazolidin-2-ylidene)-3-(2-methyl-4-(1-(5-(trifluoromethoxy)pyridin-2-yl)-1H-1,2,4-triazol-3-yl)phenyl)urea] | 50 to 100% | 50 to 100% | 
24 | Cc1ccc(OCCC(F)(F)F)c(N2C(=O)CS/C2=N\C(=O)Nc2ccc(-c3ncn(-c4ccc(S(=O)(=O)C(F)(F)F)cc4)n3)cc2C#N)c1 [Compound J402, (Z)-1-(2-cyano-4-(1-(4-((trifluoromethyl)sulfonyl)phenyl)-1H-1,2,4-triazol-3-yl)phenyl)-3-(3-(5-methyl-2-(3,3,3-trifluoropropoxy)phenyl)-4-oxothiazolidin-2-ylidene)urea] |  |  | pest or weed control at 50 µg/cm2 ([1]; read-out: BAW rating): 50 to 100%; pest or weed control at 50 µg/cm2 ([2]; read-out: CL rating): 50 to 100%
